Consider one compound from US20230002346A1, “NEW COMPOUNDS AND METHODS” (BenevolentAl Bio Limited, priority 2019, published 2023).

Data set [1] can be described thus: Brain to plasma (B:P) ratio in rat. It counts as in vivo, Sprague Dawley Rats. As to conditions: male, Sprague Dawley, po, p.o. 3.0 mg/kg, 30% HPBC in water, timepoints averaged 0.5-4 h. The protocol:
Male Sprague Dawley Rats 300-350 g (Charles River, UK) were group housed, n=3, under a 12 h light/dark cycle with food and water available ad libitum. At 17:00 on the day prior to dosing all food was removed. On the day of dosing animals were weighed, tail marked and dosed via oral gavage with compound at 3 mg/kg in a volume of 5 mL/kg. Animals were culled at 30 min, 1 h and 4 h post dose via intra-peritoneal administration of pentobarbital. Post mortem blood was withdrawn via cardiac puncture, and briefly stored in K2 EDTA blood tubes on ice before being spun at 14,000 g for 4 min at 4° C. Plasma was withdrawn into a 96 well plate, placed on dry ice and stored at −80° C. Brains were quickly dissected and placed on dry ice before storage at −80° C. Bioanalysis of plasma and brain samples is performed as detailed below. Methods were prepared with guidance from industry standard documents.^i,ii […] Calibration lines are prepared in control male Sprague-Dawley Rat plasma at known concentrations in the range of 1-10000 ng/mL by spiking 2.5 μL of calibration spiking solution into 25 μL control plasma. Experimental samples are thawed to RT and 25 μL aliquots are extracted alongside the calibration lines using protein precipitation (agitation for at least 5 min at RT with 400 μL of MeCN containing 25 ng/mL tolbutamide as an internal standard). Protein precipitates are separated from the extracted test compound by centrifugation at 4000 rpm for 5 min, 4° C. […] Samples are analysed by UPLC-MS/MS on either an API6500 QTrap or Waters 30 TQS mass spectrometer using previously optimised analytical MRM (multiple reaction monitoring) methods, specific to the test compound. The concentration of test compound in isolated samples is determined following analysis of the samples against the two replicates of the calibration line, injected before and after the sample set with an appropriate regression and weighting used. Only samples within 20% of the expected test concentration are included in the calibration line and any samples that fall outside of the limits of the calibration line will be deemed to be less than or above the limit of quantification (LLoQ/ALoQ). […] Calibration lines are prepared in control male Sprague-Dawley Rat brain homogenate at known concentrations in the range of 3-30000 ng/g by spiking 2.5 μL of calibration spiking solution into 25 μL control homogenate. To prepare control and experimental brain homogenates, brains are thawed, weighed and a volume of diluent added (water) in the ratio of 2 mL per gram of brain. Homogenisation of brains is performed by bead-beater homogenisation using Precellys Evolution and CK14 7 mL small ceramic bead homogenisation tubes. Aliquots of 25 μL experimental sample are extracted alongside the calibration lines using protein precipitation (agitation for at least 5 min at RT with 400 μL of MeCN containing 25 ng/mL tolbutamide as an internal standard). Protein precipitates are separated from the extracted test compound by centrifugation at 4000 rpm for 5 min, 4° C. […] Samples are analysed by UPLC-MS/MS on either an API6500 QTrap or Waters TQS mass spectrometer using previously optimised analytical MRM (multiple reaction monitoring) methods, specific to the test compound. The concentration of test compound in isolated samples is determined following analysis of the samples against the two replicates of the calibration line, injected before and after the sample set with an appropriate regression and weighting used. Only samples within 20% of the expected test concentration are included in the calibration line and any samples that fall outside of the limits of the calibration line will be deemed to be less than or above the limit of quantification (LLoQ/ALoQ). Total brain to plasma (B:P) ratios were calculated by dividing the concentration in the brain by the concentration in plasma for each timepoint. The mean brain to plasma ratio is calculated by averaging these brain to plasma ratios across certain timepoints. […]

The target in the next data set is T1, hERG channel (Homo sapiens, UniProt Q12809).
T1 construct: expressed in transfected cells
T1 sequence (Q12809 whole entry): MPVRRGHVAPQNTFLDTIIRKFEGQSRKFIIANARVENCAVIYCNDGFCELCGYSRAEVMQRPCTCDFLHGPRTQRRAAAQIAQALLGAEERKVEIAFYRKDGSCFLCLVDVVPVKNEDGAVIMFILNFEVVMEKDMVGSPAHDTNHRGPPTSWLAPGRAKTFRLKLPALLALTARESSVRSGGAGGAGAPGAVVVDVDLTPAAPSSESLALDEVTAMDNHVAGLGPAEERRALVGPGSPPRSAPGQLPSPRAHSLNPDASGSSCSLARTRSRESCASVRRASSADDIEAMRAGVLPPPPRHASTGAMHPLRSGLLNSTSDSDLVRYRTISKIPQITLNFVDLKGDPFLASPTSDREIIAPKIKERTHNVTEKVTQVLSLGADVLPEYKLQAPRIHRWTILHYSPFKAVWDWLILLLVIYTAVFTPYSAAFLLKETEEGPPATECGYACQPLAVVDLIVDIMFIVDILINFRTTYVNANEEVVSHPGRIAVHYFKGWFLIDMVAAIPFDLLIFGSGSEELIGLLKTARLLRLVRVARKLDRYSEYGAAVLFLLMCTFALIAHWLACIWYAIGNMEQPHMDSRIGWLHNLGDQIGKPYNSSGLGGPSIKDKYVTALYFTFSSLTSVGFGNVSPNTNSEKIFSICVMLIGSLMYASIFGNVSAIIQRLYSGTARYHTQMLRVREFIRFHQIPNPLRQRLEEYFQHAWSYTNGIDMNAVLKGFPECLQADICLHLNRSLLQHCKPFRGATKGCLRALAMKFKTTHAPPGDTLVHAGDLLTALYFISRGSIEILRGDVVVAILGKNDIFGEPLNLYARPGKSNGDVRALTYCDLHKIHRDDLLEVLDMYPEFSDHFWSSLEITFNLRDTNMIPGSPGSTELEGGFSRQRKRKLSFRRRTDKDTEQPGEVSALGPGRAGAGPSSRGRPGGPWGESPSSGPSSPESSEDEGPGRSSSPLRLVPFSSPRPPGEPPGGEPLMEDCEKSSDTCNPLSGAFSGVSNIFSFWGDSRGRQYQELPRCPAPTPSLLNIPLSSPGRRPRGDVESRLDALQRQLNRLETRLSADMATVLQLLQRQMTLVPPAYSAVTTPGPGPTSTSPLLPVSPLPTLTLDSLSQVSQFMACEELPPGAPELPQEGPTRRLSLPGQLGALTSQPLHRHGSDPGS
Kind of data set: hERG assay (QPatch automated patch clamp, CHO cells). The class given is cell-based. As to conditions: CHO cells expressing hERG, whole-cell patch clamp, 0.003 μM to 10 μM. The essentials:
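Whole-cell QPatch recordings at room temperature on CHO cells stably expressing hERG, "+40/−40" protocol from −90 mV holding, 0.1 Hz. Eight cumulative concentrations (0.003–10 μM) on one cell after 0.1% DMSO vehicle; tail-current inhibition versus vehicle fitted to four-parameter logistic, Hill slopes 0.5–2.0 accepted; mean of N≥3 cells.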

SMILES strings stand for the structures. A value given as a limit tells only on which side of the number the result lay.

Take `O=C(Nc1ccc(OC(F)(F)Cl)cc1)c1ccc(=O)n(-c2ccccc2)c1` [Example 56, N-[4-[Chloro(difluoro)methoxy]phenyl]-6-oxo-1-phenyl-pyridine-3-carboxamide]: the Kp in data set [1] was determined as 1.91. For the same compound, the IC50 against hERG channel was > 10 µM.
